Experimental findings from patent publication US4064132A, “Aroyl-substituted phenylacetamide derivatives” (Janssen Pharmaceutica N.V., priority 1976, dated 1977) are described below.

Assay [1] relates to mycobacterium butyricum induced arthritis. Nature of the assay: mycobacterium butyricum induced arthritis test in rats. The format is in vivo, male Wistar rats. Conditions: for minimal effective dose: Rattus norvegicus, po, 336 h, 14 consecutive days; for Potency Ratio: arthritis test, compound A vs compound B. How it is done: According to the mycobacterium butyricum induced arthritis test, male Wistar rats (body weight 235±15g) are injected intradermally in the tail base with 0.05 ml of an oily suspension of mycobacterium butyricum. The paws and the joint diameters of the hind limbs are measured the day of the injection and a fortnight later. Rats with established arthritis, i.e., significant increase in paw and joint diameters are used for drug testing. Groups of three individually caged animals receive the drug under investigation mixed with the powdered food at different concentrations during 14 consecutive days. After this treatment period, the diameters of the hind limbs are measured again and the effect of drug treatment is evaluated by comparing the final swelling degrees of treated animals with that occurring in untreated controls. The lowest effective dose is that dose whereby a significant decrease of the swelling is observed as compared to untreated control animals.

Assay [2] concerns acetic acid induced writhing. Nature of the assay: HOAc (acetic acid) induced writhing test in rats. It counts as in vivo, female Wistar rats. The conditions noted are these: for ED50: Rattus norvegicus, po; for Potency Ratio: writhing test, compound A vs compound B. How it is done:
According to the acetic acid induced writhing test, female Wistar rats (body weight 100±5g) are fasted overnight and injected intraperitoneally with 0.5 ml of a 1% acetic acid solution. Rats with at least 10 writhes within the first 10 minutes following the acetic acid injection are selected and treated five minutes later with an oral dose of the compound under investigation or with the vehicle (control). The number of writhes, i.e. the backward extension of the hind limbs, are counted during a 15 minute experimental session 45 to 60 minutes after the oral treatment. A minimum of three rats are used for each dose level tested.

The mark [3] stands for this setting: drug in food, table 3, read-out: Mycobacterium butyricum test effective dose.
[4] abbreviates: mixed with the powdered food, significant decrease of swelling vs untreated controls, table 2, read-out: Lowest Effective Dose.
The mark [5] stands for this setting: all-or-none basis of less than 15 writhes per animal per session, table 1, read-out: Oral ED50 (lowest effective oral dose expressed as ED50).
Where [6] appears, read: table 3, read-out: Writhing test in rats, ED50.

Where two headings read alike, the source gives them in different places.

On to `CC(C(=O)O)c1ccc(C(=O)c2cccs2)cc1` (single isomer, unassigned; (+)) [p-(2-thenoyl) (+) H H Me H OH, (+)-p-(2-thenoyl)hydratropic acid], for which, in assay [1] (setting [3]), the minimal effective dose is not above 2.5 mg/kg. Moreover, in assay [2] (oral, table 3), the “Writhing test in rats; ED50” value is 0.31 mg/kg.

Regarding `CC(C(=O)O)c1ccc(C(=O)c2cccs2)cc1` (single isomer, unassigned; (-)) [p-(2-thenoyl) (-) H H Me H OH, (-)-p-(2-thenoyl)hydratropic acid], in assay [2] (oral, table 3), the “Writhing test in rats; ED50” value amounted to 5.0 mg/kg.

Take `CC(C(=O)O)c1ccc(C(=O)c2cccs2)cc1` (stereo not drawn) [A, p-(2-thenoyl)-α-methyl-phenylacetic acid]: in assay [1], the “antagonism of mycobacterium butyricum induced arthritis in rats (in words)” value was “powerful antagonist of mycobacterium butyricum induced arthritis in rats”. The minimal effective dose in assay [1] (setting [4]) was determined as 0.63 mg/kg. Also, the “Potency Ratio” value in assay [1] (table 2) and in assay [2] (table 1) was 1 each time. In addition, the “times more active than compound B (arthritis)” value in assay [1] (drug in food, 14 days) is “at least 16 times”. Further, in assay [2] (setting [5]), the ED50 was found to be 0.08 mg/kg. Moreover, the “times more active than compound B (writhing)” value in assay [2] (oral) was 16 times.

Turning to `CC(C(=O)O)c1ccc(C(=O)c2ccccc2)cc1` (stereo not drawn) [B, p-benzoyl-α-methylphenylacetic acid, reference compound], in assay [1] (setting [4]), the minimal effective dose came to 10 mg/kg. In addition, the “Potency Ratio” value in assay [1] (table 2) and in assay [2] (table 1) was 1/16 in each case. In addition, the ED50 in assay [2] (setting [5]) stood at 1.25 mg/kg.

`CC(C(=O)O)c1cccc(C(=O)c2cccs2)c1` (centres unmarked) [m-(2-thenoyl) H H Me H OH, m-(2-thenoyl)hydratropic acid]: the ED50 in assay [2] (setting [6]) came out at 1.25 mg/kg.

Regarding `Cc1c(CC(=O)O)cccc1C(=O)c1cccs1` [m-(2-thenoyl) H Me H H OH, 2-[3-(2-thenoyl)-o-tolyl]acetic acid], the minimal effective dose in assay [1] (setting [3]) worked out at 1.25 mg/kg. Besides, in assay [2] (setting [6]), the ED50 amounted to 10 mg/kg.

`CC(C(=O)O)c1ccc(C(=O)c2ccc3ccccc3c2)cc1` (centres unmarked) [p-(2-naphtoyl) H H Me H OH, p-(2-naphthoyl)hydratropic acid]: in assay [1] (setting [3]), the minimal effective dose came to 10 mg/kg. In addition, in assay [2] (setting [6]), the ED50 was determined as 1.25 mg/kg.

For the compound `CC(C(=O)O)c1ccc(C(=O)c2cccs2)c(Cl)c1` (centres unmarked) [p-(2-thenoyl) Cl H Me H OH, 3-chloro-4-(2-thenoyl)hydratropic acid], in assay [1] (setting [3]), the minimal effective dose amounted to 1.25 mg/kg. Besides, in assay [2] (setting [6]), the ED50 amounted to 1.25 mg/kg.

With `CCC(C(=O)O)c1ccc(C(=O)c2cccs2)cc1` (centres unmarked) [p-(2-thenoyl) H H Et H OH, 2-[p-(2-thenoyl)phenyl]butyric acid], the ED50 in assay [2] (setting [6]) amounted to 0.63 mg/kg.

For `CC(C(=O)NO)c1ccc(C(=O)c2cccs2)cc1` (centres unmarked) [p-(2-thenoyl) H H Me H NHOH, p-(2-thenoyl)hydratropohydroxamic acid], the ED50 in assay [2] (setting [6]) worked out at 1.25 mg/kg.

Turning to `CCN(CC)CCOC(=O)C(C)c1ccc(C(=O)c2cccs2)cc1.Cl` (centres unmarked) [p-(2-thenoyl) H H Me H O(CH2)2N(Et)2, 2-(diethylamino)ethyl p-(2-thenoyl)hydratropate hydrochloride], the minimal effective dose in assay [1] (setting [3]) is 2.5 mg/kg. In addition, in assay [2] (setting [6]), the ED50 was 0.04 mg/kg.

Take `CC(C(=O)OCCN(C)C)c1ccc(C(=O)c2cccs2)cc1.O=C(O)C(=O)O` (centres unmarked) [p-(2-thenoyl) H H Me H O(CH2)2N(Me)2, 2-(dimethylamino)ethyl p-(2-thenoyl)hydratropate oxalate]: the minimal effective dose in assay [1] (setting [3]) was determined as 2.5 mg/kg. Besides, the ED50 in assay [2] (setting [6]) stood at 0.08 mg/kg.

As to `CC(C(=O)OCCCN(C)C)c1ccc(C(=O)c2cccs2)cc1.O=C(O)C(=O)O` (centres unmarked) [p-(2-thenoyl) H H Me H O(CH2)3N(Me)2, 3-(dimethylamino)propylp-(2-thenoyl)hydratropate oxalate], in assay [1] (setting [3]), the minimal effective dose stood at 2.5 mg/kg. Further, the ED50 in assay [2] (setting [6]) was 0.16 mg/kg.

Consider `CCOC(=O)C(C)c1ccc(C(=O)c2cccs2)cc1` (centres unmarked) [p-(2-thenoyl) H H Me H OEt, ethyl p-(2-thenoyl)hydratropate], for which, in assay [2] (setting [6]), the ED50 stood at 0.31 mg/kg.

For the compound `CCCCCCCCOC(=O)C(C)c1ccc(C(=O)c2cccs2)cc1` (centres unmarked) [p-(2-thenoyl) H H Me H OOct, octyl p-(2-thenoyl)hydratropate], in assay [2] (setting [6]), the ED50 was 0.63 mg/kg.

As for `COc1ccc(NC(=O)C(C)c2ccc(C(=O)c3cccs3)cc2)cc1` (centres unmarked) [p-(2-thenoyl) H H Me H drawing 30], in assay [1] (setting [3]), the minimal effective dose is less than 10 mg/kg. Further, in assay [2] (setting [6]), the ED50 is 10 mg/kg.

As to `CC(C(=O)NC1=NCCS1)c1ccc(C(=O)c2cccs2)cc1` (centres unmarked) [p-(2-thenoyl) H H Me H drawing 31], in assay [1] (setting [3]), the minimal effective dose amounted to 10 mg/kg. Further, in assay [2] (setting [6]), the ED50 turned out to be 2.5 mg/kg.

As to `CC(C)(C(=O)O)c1ccc(C(=O)c2cccs2)cc1` [p-(2-thenoyl) H H Me Me OH, α-methyl-p-(2-thenoyl)hydratropic acid], in assay [1] (setting [3]), the minimal effective dose was less than 10 mg/kg. Besides, in assay [2] (setting [6]), the ED50 turned out to be 0.31 mg/kg.

Take `C=CCC(C(=O)O)c1ccc(C(=O)c2cccs2)cc1` (centres unmarked) [p-(2-thenoyl) H H allyl H OH, 2-[p-(2-thenoyl)phenyl]-4-pentenoic acid]: in assay [1] (setting [3]), the minimal effective dose is 10 mg/kg. Moreover, in assay [2] (setting [6]), the ED50 stood at 1.25 mg/kg.

Regarding `Cc1cc(C(C)C(=O)O)ccc1C(=O)c1cccs1` (centres unmarked) [p-(2-thenoyl) Me H Me H OH, 3-methyl-4-(2-thenoyl)hydratropic acid], the minimal effective dose in assay [1] (setting [3]) was determined as 10 mg/kg. Further, the ED50 in assay [2] (setting [6]) was 5 mg/kg.

Turning to `CC(C(=O)O)c1ccc(C(=O)c2cccnc2)cc1.Cl` (centres unmarked) [p-(3-pyridylcarbonyl) H H Me H OH, p-(3-pyridylcarbonyl)hydratropic acid hydrochloride], the minimal effective dose in assay [1] (setting [3]) was 2.5 mg/kg. Moreover, in assay [2] (setting [6]), the ED50 was determined as 2.5 mg/kg.

Regarding `Cc1ccc(C(=O)c2ccc(C(C)C(=O)O)cc2)s1` (centres unmarked) [p-(5-Me-2-thenoyl) H H Me H OH, p-(5-methyl-2-thenoyl)hydratropic acid], the minimal effective dose in assay [1] (setting [3]) came out at 5 mg/kg. In addition, in assay [2] (setting [6]), the ED50 was 1.25 mg/kg.

As to `CC(C(=O)O)c1ccc(C(=O)c2ccc(Cl)s2)cc1` (centres unmarked) [p-(5-chloro-2-thenoyl) H H Me H OH, p-(5-chloro-2-thenoyl)hydratropic acid], in assay [1] (setting [3]), the minimal effective dose is 5 mg/kg. For the same compound, the ED50 in assay [2] (setting [6]) turned out to be 0.63 mg/kg.
